Data from article PMC9471462, “The nematode serotonin-gated chloride channel MOD-1: A novel target for anthelmintic therapy” (The Journal of Biological Chemistry, 2022).
Blank lines part the entries; values can stand above or below the compound they belong to.

Experiments:
[1] = target: T1, MOD-1 (Caenorhabditis elegans, UniProt Q9GQ00); experiment: cell-based
[2] = target: T1, MOD-1; experiment: whole-cell patch clamp of homomeric MOD-1 expressed in BOSC-23 cells, agonist concentration-response (efficacy about […]); assay type: cell-based
[3] = target: T1, MOD-1; experiment: whole-cell patch clamp in BOSC-23 cells, inhibition of […] 5-HT currents after […] s preincubation; assay type: cell-based
[4] = target: T1, MOD-1; experiment: whole-cell patch clamp in BOSC-23 cells, preincubation; weak partial reduction of 5-HT peak current at […]; assay type: cell-based

T1 sequence (Q9GQ00 21-489): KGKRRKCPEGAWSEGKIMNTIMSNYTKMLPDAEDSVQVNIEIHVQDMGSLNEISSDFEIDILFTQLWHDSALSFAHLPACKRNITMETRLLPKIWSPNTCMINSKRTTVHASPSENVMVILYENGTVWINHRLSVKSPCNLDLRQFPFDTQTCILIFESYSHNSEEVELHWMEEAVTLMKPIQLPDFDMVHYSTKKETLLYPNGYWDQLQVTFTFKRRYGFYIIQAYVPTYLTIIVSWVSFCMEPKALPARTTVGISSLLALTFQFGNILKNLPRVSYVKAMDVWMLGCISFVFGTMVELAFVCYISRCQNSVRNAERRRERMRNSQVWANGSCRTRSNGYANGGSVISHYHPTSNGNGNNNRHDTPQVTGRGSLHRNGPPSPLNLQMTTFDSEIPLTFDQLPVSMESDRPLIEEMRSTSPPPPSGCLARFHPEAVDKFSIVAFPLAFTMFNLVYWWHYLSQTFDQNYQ

IC50 [1]: 113 ± 29 µM
SMILES: C1CNCCN1 [PZE, piperazine]

SMILES: NCCc1c[nH]c2ccccc12 [Tryp, tryptamine]
EC50 [2]: 47 ± 11 µM

SMILES: NCc1cc(=O)[nH]o1 [muscimol]
IC50 [3]: 249 ± 160 µM

SMILES: O=C(O)C1=CCNCC1 [isoguvacine]
inhibition at 1000 µM [4]: 23 ± 14%
